Experimental data taken from patent publication US12624018B1, “Inhibitors of RIPK2 and medical uses thereof” (Odyssey Therapeutics, Inc., priority 2022, dated 2026).
Like-named read-outs stand apart in the source and are kept apart here.

Tests used:
RIPK2 enzyme = biological target: T1, RIPK2 enzyme (Homo sapiens, UniProt O43353); experiment: RIPK2 inhibition (ADP-Glo Kinase Assay); format: biochemical; conditions: RIPK2 5 nM, ATP 150 μM, MBP substrate, read-out: RIPK2 IC50
T1 construct: purchased Carna 09-128
T1 sequence (O43353 1-299 limits assumed): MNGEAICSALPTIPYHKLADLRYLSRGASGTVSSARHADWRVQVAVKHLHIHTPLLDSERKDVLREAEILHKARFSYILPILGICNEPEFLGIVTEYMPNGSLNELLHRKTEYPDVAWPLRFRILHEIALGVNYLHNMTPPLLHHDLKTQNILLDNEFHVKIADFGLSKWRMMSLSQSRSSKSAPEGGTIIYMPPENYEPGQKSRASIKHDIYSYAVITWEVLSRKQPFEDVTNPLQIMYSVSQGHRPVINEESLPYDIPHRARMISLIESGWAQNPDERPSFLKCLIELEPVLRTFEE
Method in brief: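 Swine MBP substrate; compound and 5 nM RIPK2 first mixed for 30 min at room temperature; buffer pH 7.5 HEPES 50 mM with 10 mM MgCl2, 2 mM DTT, 1 mM EGTA, Brij-35, BSA.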

human NOD2 signaling = experiment: Inhibition of human NOD2 signaling in HEK-Blue-hNOD2 cells (L18-MDP stimulated, SEAP reporter); format: cell-based; conditions: NOD2 ligand stimulation, SEAP reporter, read-out: hNOD2 IC50
Method in brief: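 Read-out is SEAP absorbance at 620 nm after 3 h QUANTI-Blue development of supernatant from HEK293 cells carrying NOD2 and a SEAP reporter (12500/well). Cells got compound (10 points, 3-fold dilutions) and 0.5 ng/mL L18-MDP for 24 h at 37 °C; percent inhibition vs stimulated/unstimulated controls, 4-parameter IC50.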

[1] = Homo sapiens, HEK-Blue hNOD2, HEK-Blue-hNOD2 cells

IC50 (RIPK2 enzyme) [nM]	IC50 (human NOD2 signaling; [1]) [nM]	IC50 (human NOD2 signaling; HEK-Blue-hNOD2 cells) [nM]	SMILES
< 2.5	0.7		[2H]C([2H])([2H])C(n1cc(NC(=O)Cc2cc(C)c(Oc3ccnc4cc(F)c(C(=O)NC)cc34)cc2F)cn1)(C([2H])([2H])[2H])C([2H])([2H])[2H] [Compound 596, 7-fluoro-4-(5-fluoro-2-methyl-4-(2-((1-(2-(methyl-d3)propan-2-yl-1,1,1,3,3,3-d6)-1H-pyrazol-4-yl)amino)-2-oxoethyl)phenoxy)-N-methylquinoline-6-carboxamide]
< 2.5	6.7		Cc1cc(CC(=O)Nc2cc(C(C)(C)C)[nH]n2)ccc1Oc1ccnc2cc(F)c(S(C)(=N)=O)cc12 (single isomer, unassigned) [Compound 620, N-(5-(tert-butyl)-1H-pyrazol-3-yl)-2-(4-((7-fluoro-6-(S-methylsulfonimidoyl)quinolin-4-yl)oxy)-3-methylphenyl) acetamide]
< 2.5	0.6		CCc1nc(-c2ccc3nccc(Oc4cc(F)c(CC(=O)Nc5cnn(C(C)(C)C)c5)cc4C)c3c2)n[nH]1 [Compound 483, N-(1-(tert-butyl)-1H-pyrazol-4-yl)-2-(4-((6-(5-ethyl-1H-1,2,4-triazol-3-yl)quinolin-4-yl)oxy)-2-fluoro-5-methylphenyl)acetamide]
< 2.5	46.7		CNC(=O)c1ccc2nccc(Oc3c(C)cc(CC(=O)Nc4cnn(C56CC(C5)C6)c4)cc3Cl)c2c1 [Compound 591, 4-(4-(2-((1-(bicyclo[1.1.1]pentan-1-yl)-1H-pyrazol-4-yl)amino)-2-oxoethyl)-2-chloro-6-methylphenoxy)-N-methylquinoline-6-carboxamide]
< 2.5	1.4		[2H]C([2H])([2H])NC(=O)c1cc2c(Oc3c(C)cc(CC(=O)Nc4cnn(C(C)(C)C)c4)cc3F)ccnc2cc1F [Compound 600, 4-(4-(2-((1-(tert-butyl)-1H-pyrazol-4-yl)amino)-2-oxoethyl)-2-fluoro-6-methylphenoxy)-7-fluoro-N-(methyl-d3)quinoline-6-carboxamide]
2.7	10.5		Cc1cc(CC(=O)Nc2cnn(C(C)(C)C)c2)c(F)cc1Oc1ccnc2ccc(C3(C(N)=O)CC3)cc12 [Compound 570, 1-(4-(4-(2-((1-(tert-butyl)-1H-pyrazol-4-yl)amino)-2-oxoethyl)-5-fluoro-2-methylphenoxy)quinolin-6-yl)cyclopropane-1-carboxamide]
< 2.5	0.3		Cc1c(Oc2ccnc3ccc(S(=N)(=O)C4CCC4)cc23)ccc(CC(=O)Nc2cnn(C(C)(C)C)c2)c1F (single isomer, unassigned) [Compound 541, N-(1-(tert-butyl)-1H-pyrazol-4-yl)-2-(4-((6-(cyclobutanesulf-onimidoyl)quinolin-4-yl)oxy)-2-fluoro-3-methylphenyl) acetamide]
< 2.5	2.5		Cc1cc(CC(=O)Nc2cnn(C(C)(C)C)c2)ccc1Oc1ccnc2ccc(C3(C(N)=O)CC3)cc12 [Compound 603, 1-(4-(4-(2-((1-(tert-butyl)-1H-pyrazol-4-yl)amino)-2-oxoethyl)-2-methylphenoxy)quinolin-6-yl)cyclopropane-1-carboxamide]
< 2.5		11.7	Cc1cc(CC(=O)Nc2cc(C(C)(C)C)[nH]n2)ccc1Oc1ccnc2cc(F)c(S(C)(=N)=O)cc12 (single isomer, unassigned) [Compound 621, N-(5-(tert-butyl)-1H-pyrazol-3-yl)-2-(4-((7-fluoro-6-(S-methylsulfonimidoyl)quinolin-4-yl)oxy)-3-methylphenyl) acetamide]
2.8	17.5		Cc1cc(CC(=O)Nc2cnn(C(C)(C)C)c2)ccc1Oc1ccnc2ccc(C(C)(O)C(N)=O)cc12 (single isomer, unassigned) [Compound 615, 2-(4-(4-(2-((1-(tert-butyl)-1H-pyrazol-4-yl)amino)-2-oxoethyl)-2-methylphenoxy)quinolin-6-yl)-2-hydroxypropanamide]
< 2.5	0.8		CNC(=O)c1cc2c(Oc3ccc(CC(=O)Nc4cnn(C(C)(C)C)c4)cc3C(F)F)ccnc2cc1OC [Compound 579, 4-(4-(2-((1-(tert-butyl)-1H-pyrazol-4-yl)amino)-2-oxoethyl)-2-(difluoromethyl)phenoxy)-7-methoxy-N-methylquinoline-6-carboxamide]
< 2.5	5.2		CNC(=O)c1cc2c(Oc3ccc(CC(=O)Nc4cnn(C(C)(C)C)c4)cc3C(F)F)ccnc2cc1F [Compound 576, 4-(4-(2-((1-(tert-butyl)-1H-pyrazol-4-yl)amino)-2-oxoethyl)-2-(difluoromethyl)phenoxy)-7-fluoro-N-methylquinoline-6-carboxamide]
4.2	54		Cc1cc(CC(=O)Nc2cnn(C(C)(C)C)c2)c(F)cc1Oc1ccnc2ccc(-c3ncccc3C)cc12 [Compound 475, N-(1-(tert-butyl)-1H-pyrazol-4-yl)-2-(2-fluoro-5-methyl-4-((6-(3-methylpyridin-2-yl)quinolin-4-yl)oxy)phenyl)acetamide]
< 2.5	2		[2H]C([2H])([2H])C(n1cc(NC(=O)Cc2cc(C)c(Oc3ccnc4ccc(C(=O)NC)cc34)cc2F)cn1)(C([2H])([2H])[2H])C([2H])([2H])[2H] [Compound 622, 4-(5-fluoro-2-methyl-4-(2-((1-(2-(methyl-d3)propan-2-yl-1,1,1,3,3,3-d6)-1H-pyrazol-4-yl)amino)-2-oxoethyl)phenoxy)-N-methylquinoline-6-carboxamide]
< 2.5		22.4	Cc1cc(CC(=O)Nc2cnn(C(C)(C)C)c2)ccc1Oc1ccnc2ccc(C(C)(O)C(N)=O)cc12 (single isomer, unassigned) [Compound 616, 2-(4-(4-(2-((1-(tert-butyl)-1H-pyrazol-4-yl)amino)-2-oxoethyl)-2-methylphenoxy)quinolin-6-yl)-2-hydroxypropanamide]
< 2.5	15.6		Cc1cc(CC(=O)Nc2cnn(C(C)(C)C)c2)ccc1Oc1ccnc2ccc(C3(S(C)(=O)=O)CC3)cc12 [Compound 605, N-(1-(tert-butyl)-1H-pyrazol-4-yl)-2-(3-methyl-4-((6-(1-(methylsulfonyl)cyclopropyl)quinolin-4-yl)oxy)phenyl)acetamide]
< 2.5	46.3		Cc1cc(CC(=O)Nc2cnn(C(C)(C)C)c2)ccc1Oc1ccnc2ccc(C(O)C(N)=O)cc12 (single isomer, unassigned) [Compound 609, 2-(4-((6-(2-amino-1-hydroxy-2-oxoethyl)quinolin-4-yl)oxy)-3-methylphenyl)-N-(1-(tert-butyl)-1H-pyrazol-4-yl)acetamide]
< 2.5	0.7		Cc1cc(CC(=O)Nc2cnn(C(C)(C)C)c2)c(F)cc1Oc1ccnc2ccc(-c3cncnc3C)cc12 [Compound 524, N-(1-(tert-butyl)-1H-pyrazol-4-yl)-2-(2-fluoro-5-methyl-4-((6-(4-methylpyrimidin-5-yl)quinolin-4-yl)oxy)phenyl)acetamide]
< 2.5	0.2		[2H]C([2H])([2H])NC(=O)c1cc2c(Oc3ccc(CC(=O)Nc4cnn(C(C)(C)C)c4)cc3C)ccnc2cc1F [Compound 493, 4-(4-(2-((1-(tert-butyl)-1H-pyrazol-4-yl)amino)-2-oxoethyl)-2-methylphenoxy)-7-fluoro-N-(methyl-d3)quinoline-6-carboxamide]
< 2.5	15.4		CC(C)(C)n1cc(NC(=O)Cc2cc(Cl)c(Oc3ccnc4ccc(CS(C)(=O)=O)cc34)cc2F)cn1 [Compound 561, N-(1-(tert-butyl)-1H-pyrazol-4-yl)-2-(5-chloro-2-fluoro-4-((6-((methylsulfonyl)methyl)quinolin-4-yl)oxy)phenyl)acetamide]
< 2.5	1.1		Cc1cc(CC(=O)Nc2cc(C(C)(C)C)[nH]n2)cc(F)c1Oc1ccnc2cc(F)c(C(N)=O)cc12 [Compound 617, 4-(4-(2-((5-(tert-butyl)-1H-pyrazol-3-yl)amino)-2-oxoethyl)-2-fluoro-6-methylphenoxy)-7-fluoroquinoline-6-carboxamide]
< 2.5	2		[2H]C([2H])([2H])NC(=O)c1cc2c(Oc3ccc(CC(=O)Nc4cnn(C(C)(C)C)c4)cc3C(F)F)ccnc2cc1F [Compound 577, 4-(4-(2-((1-(tert-butyl)-1H-pyrazol-4-yl)amino)-2-oxoethyl)-2-(difluoromethyl)phenoxy)-7-fluoro-N-(methyl-d3)quinoline-6-carboxamide]
< 2.5		19.3	Cc1cc(CC(=O)Nc2cnn(C(C)C(F)(F)F)c2)ccc1Oc1ccnc2ccc(S(C)(=O)=O)cc12 (single isomer, unassigned) [Compound 595, 2-(3-methyl-4-((6-(methylsulfonyl)quinolin-4-yl)oxy)phenyl)-N-(1-(1,1,1-trifluoropropan-2-yl)-1H-pyrazol-4-yl)acetamide]
3.5	6.1		Cc1c(Oc2ccnc3ccc(C4(S(C)(=O)=O)CC4)cc23)cc(F)c(CC(=O)Nc2cnn(C(C)(C)C)c2)c1F [Compound 607, N-(1-(tert-butyl)-1H-pyrazol-4-yl)-2-(2,6-difluoro-3-methyl-4-((6-(1-(methylsulfonyl)cyclopropyl)quinolin-4-yl)oxy)phenyl)acetamide]
